This is an account of results in patent US10638756B2, “Molecules having pesticidal utility, and intermediates, compositions, and processes, related thereto” (Dow AgroSciences LLC, priority 2017, dated 2020).

The subject of test [1] is Cabbage Looper (Trichoplusia ni). Kind of test: Bioassay on Cabbage Looper (CL), 128-well diet tray assay. The class given is in vivo. To be noted: 168 h, 50 μg/cm^2 on artificial diet, second instar larvae, five to seven days, read-out: CL % Control (or Mortality) rating. The method, boiled down: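 One to five second-instar larvae per well on artificial diet surface-treated with 50 μg/cm^2 test molecule (applied in 90:10 acetone-water, dried). Held 5–7 days at 25° C, 14:10 light-dark; percent mortality recorded per well and averaged over eight wells.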

Test [2] relates to Beet Armyworm (Spodoptera exigua). As to the kind of experiment: Bioassay on Beet Armyworm (BAW), 128-well diet tray assay. The class given is in vivo. The conditions noted are these: Spodoptera exigua, 168 h; 50 μg/cm^2 on artificial diet, second instar larvae, five to seven days; read-out: BAW % Control (or Mortality) rating.

On to `O=C(NNc1ncccn1)c1ccc(/C(F)=C/C(c2cc(Cl)cc(C(F)(F)F)c2)C(F)(F)F)cc1C(F)(F)F` (stereo not drawn) [F77, (Z)-4-(3-(3-Chloro-5-(trifluoromethyl)phenyl)-1,4,4,4-tetrafluorobut-1-en-1-yl)-N′-(pyrimidin-2-yl)-2-(trifluoromethyl)benzohydrazide], for which the mortality at 50 µg/cm2 in test [1] and in test [2] was 50 to 100% throughout.

For the compound `O=C(NNc1ncccn1)c1ccc(/C(F)=C/C(c2cc(Cl)cc(OC(F)(F)F)c2)C(F)(F)F)cc1C(F)(F)F` (stereo not drawn) [F106, (Z)-4-(3-(3-Chloro-5-(trifluoromethoxy)phenyl)-1,4,4,4-tetrafluorobut-1-en-1-yl)-N′-(pyrimidin-2-yl)-2-(trifluoromethyl)benzohydrazide], the mortality at 50 µg/cm2 in test [1] and in test [2] was 50 to 100% throughout.

Consider `O=C(NNCCCC(F)(F)F)c1ccc(/C(F)=C/C(c2cc(Cl)c(Cl)c(Cl)c2)C(F)(F)F)cc1C(F)(F)F` (stereo not drawn) [F103, (Z)-4-(1,4,4,4-tetrafluoro-3-(3,4,5-trichlorophenyl)but-1-en-1-yl)-N′-(4,4,4-trifluorobutyl)-2-(trifluoromethyl)benzohydrazide], for which the mortality at 50 µg/cm2 in test [1] and in test [2] was 50 to 100% in each case.

For `CN(NC(=O)c1ccc(/C(F)=C/C(c2cc(Cl)c(Cl)c(Cl)c2)C(F)(F)F)cc1C(F)(F)F)c1ncc([N+](=O)[O-])cn1` (stereo not drawn) [F164, (Z)—N′-Methyl-N′-(5-nitropyrimidin-2-yl)-4-(1,4,4,4-tetrafluoro-3-(3,4,5-trichlorophenyl)but-1-en-1-yl)-2-(trifluoromethyl)benzohydrazide], the mortality at 50 µg/cm2 in test [1] and in test [2] was 50 to 100% each time.

With `CC(C)(C)CNNC(=O)c1ccc(/C(F)=C/C(c2cc(Cl)c(Cl)c(Cl)c2)C(F)(F)F)cc1C(F)(F)F` (stereo not drawn) [F140, (Z)—N′-Neopentyl-4-(1,4,4,4-tetrafluoro-3-(3,4,5-trichlorophenyl)but-1-en-1-yl)-2-(trifluoromethyl)benzohydrazide], the mortality at 50 µg/cm2 in test [1] and in test [2] was 50 to 100% in each case.

For `CN(NC(=O)c1ccc(/C(F)=C/C(c2cc(Cl)c(Cl)c(Br)c2)C(F)(F)F)cc1C(F)(F)F)c1ncccn1` (stereo not drawn) [F171, (Z)-4-(3-(3-Bromo-4,5-dichlorophenyl)-1,4,4,4-tetrafluorobut-1-en-1-yl)-N′-methyl-N′-(pyrimidin-2-yl)-2-(trifluoromethyl)benzohydrazide], the mortality at 50 µg/cm2 in test [1] and in test [2] was 50 to 100% throughout.

In the case of `O=C(NNc1cccc(C(F)(F)F)n1)c1ccc(/C(F)=C/C(c2cc(Cl)c(Cl)c(Cl)c2)C(F)(F)F)cc1C(F)(F)F` (stereo not drawn) [F141, (Z)-4-(1,4,4,4-Tetrafluoro-3-(3,4,5-trichlorophenyl)but-1-en-1-yl)-2-(trifluoromethyl)-N′-(6-(trifluoromethyl)pyridin-2-yl)benzohydrazide], the mortality at 50 µg/cm2 in test [1] and in test [2] was 50 to 100% each time.

`O=C(NNc1ncccn1)c1ccc(/C(F)=C/C(c2ccc(Cl)c(OC(F)(F)F)c2)C(F)(F)F)cc1C(F)(F)F` (stereo not drawn) [F42, (Z)-4-(3-(4-Chloro-3-(trifluoromethoxy)phenyl)-1,4,4,4-tetrafluorobut-1-en-1-yl)-N′-(pyrimidin-2-yl)-2-(trifluoromethyl)benzohydrazide]: the mortality at 50 µg/cm2 in test [1] and in test [2] was 50 to 100% throughout.

Consider `O=C(NNc1ncccn1)c1ccc(/C(F)=C\C(c2cc(Cl)c(Cl)c(Cl)c2)C(F)(F)F)cc1C(F)(F)F` (stereo not drawn) [F74, (E)-N′-(pyrimidin-2-yl)-4-(1,4,4,4-tetrafluoro-3-(3,4,5-trichlorophenyl)but-1-en-1-yl)-2-(trifluoromethyl)benzohydrazide], for which the mortality at 50 µg/cm2 in test [1] and in test [2] was 50 to 100% each time.

With `CC(C)(C)NNC(=O)c1ccc(/C(F)=C/C(c2cc(Cl)c(Cl)c(Cl)c2)C(F)(F)F)cc1C(F)(F)F` (stereo not drawn) [F40, (Z)—N′-(tert-Butyl)-4-(1,4,4,4-tetrafluoro-3-(3,4,5-trichlorophenyl)but-1-en-1-yl)-2-(trifluoromethyl)benzohydrazide], the mortality at 50 µg/cm2 in test [1] and in test [2] was 50 to 100% each time.

As to `O=C(N/N=C/c1ccccc1)c1ccc(/C(F)=C/C(c2cc(Cl)c(Cl)c(Cl)c2)C(F)(F)F)cc1C(F)(F)F` (stereo not drawn) [F38, N′-((E)-benzylidene)-4-((Z)-1,4,4,4-tetrafluoro-3-(3,4,5-trichlorophenyl)but-1-en-1-yl)-2-(trifluoromethyl)benzohydrazide], the mortality at 50 µg/cm2 in test [1] and in test [2] was 50 to 100% throughout.

As for `O=C(NNc1c(Cl)cccc1Cl)c1ccc(/C(F)=C/C(c2cc(Cl)c(Cl)c(Cl)c2)C(F)(F)F)cc1C(F)(F)F` (stereo not drawn) [F129, (Z)—N′-(2,6-dichlorophenyl)-4-(1,4,4,4-tetrafluoro-3-(3,4,5-trichlorophenyl)but-1-en-1-yl)-2-(trifluoromethyl)benzohydrazide], the mortality at 50 µg/cm2 in test [1] and in test [2] was 50 to 100% each time.

For `O=C(NNC1CCC1)c1ccc(/C(F)=C/C(c2cc(Cl)c(Cl)c(Cl)c2)C(F)(F)F)cc1C(F)(F)F` (stereo not drawn) [F138, (Z)—N′-Cyclobutyl-4-(1,4,4,4-tetrafluoro-3-(3,4,5-trichlorophenyl)but-1-en-1-yl)-2-(trifluoromethyl)benzohydrazide], the mortality at 50 µg/cm2 in test [1] and in test [2] was 50 to 100% in each case.

Consider `O=C(NNc1cncnc1)c1ccc(/C(F)=C/C(c2cc(Cl)c(Cl)c(Cl)c2)C(F)(F)F)cc1C(F)(F)F` (stereo not drawn) [F31, (Z)—N′-(Pyrimidin-5-yl)-4-(1,4,4,4-tetrafluoro-3-(3,4,5-trichlorophenyl)but-1-en-1-yl)-2-(trifluoromethyl)benzohydrazide], for which the mortality at 50 µg/cm2 in test [1] and in test [2] was 50 to 100% throughout.

In the case of `O=C(NNc1nccc(C(F)(F)F)n1)c1ccc(/C(F)=C/C(c2cc(Cl)c(Cl)c(Cl)c2)C(F)(F)F)cc1C(F)(F)F` (stereo not drawn) [F44, (Z)-4-(1,4,4,4-Tetrafluoro-3-(3,4,5-trichlorophenyl)but-1-en-1-yl)-2-(trifluoromethyl)-N′-(4-(trifluoromethyl)pyrimidin-2-yl)benzohydrazide], the mortality at 50 µg/cm2 in test [1] and in test [2] was 50 to 100% in each case.

Regarding `CN(NC(=O)c1ccc(/C(F)=C/[C@@H](c2cc(Cl)c(Cl)c(Cl)c2)C(F)(F)F)cc1C(F)(F)F)c1ncccn1` (single isomer, unassigned) [F17], the mortality at 50 µg/cm2 in test [1] and in test [2] was 50 to 100% throughout.

`Cc1cc(O)nc(NNC(=O)c2ccc(/C(F)=C/C(c3cc(Cl)c(Cl)c(Cl)c3)C(F)(F)F)cc2C(F)(F)F)n1` (stereo not drawn) [F105, (Z)—N′-(4-Hydroxy-6-methylpyrimidin-2-yl)-4-(1,4,4,4-tetrafluoro-3-(3,4,5-trichlorophenyl)but-1-en-1-yl)-2-(trifluoromethyl)benzohydrazide]: the mortality at 50 µg/cm2 in test [1] and in test [2] was 50 to 100% throughout.

For the compound `O=C(NNc1ncccn1)c1ccc(/C(F)=C/C(c2cc(Br)c(F)c(Br)c2)C(F)(F)F)cc1C(F)(F)F` (stereo not drawn) [F163, (Z)-4-(3-(3,5-Dibromo-4-fluorophenyl)-1,4,4,4-tetrafluorobut-1-en-1-yl)-N′-(pyrimidin-2-yl)-2-(trifluoromethyl)benzohydrazide], the mortality at 50 µg/cm2 in test [1] and in test [2] was 50 to 100% each time.
